From patent US8877775B2, “Substituted 2-aza-bicyclo[2.2.2]octane-3-carboxylic acid (benzyl-cyano-methyl)-amides inhibitors of cathepsin C” (Boehringer Ingelheim International GmbH, priority 2013, dated 2014) come the findings set out here.

A word on the IC50: it is the point on the concentration scale where inhibition reaches its midpoint.

Structures are written as SMILES.

The nature of series [1]: Metabolic stability with human liver microsomes. The following applies: pH 7.6; pooled human liver microsomes, 37° C., 1 μM test compound, 1 mg/ml protein, NADPH; read-out: In vitro stability in human liver microsome incubations t1/2. In kind it is in vitro ADME. The protocol:
Determination of Metabolic Stability with Human Liver Microsomes
The metabolic degradation of the test compound is assayed at 37° C. with pooled human liver microsomes. The final incubation volume of 100 μl per time point contains TRIS buffer pH 7.6 (0.1 M), magnesium chloride (5 mM), microsomal protein (1 mg/ml) and the test compound at a final concentration of 1 μM. Following a short preincubation period at 37° C., the reactions are initiated by addition of beta-nicotinamide adenine dinucleotide phosphate, reduced form (NADPH, 1 mM) and terminated by transfering an aliquot into acetonitrile after different time points. Additionally, the NADPH-independent degradation is monitored in incubations without NADPH, terminated at the last time point. The [%] remaining test compound after NADPH independent incubation is reflected by the parameter c(control) (metabolic stability). The quenched incubations are pelleted by centrifugation (10′000 g, 5 min). An aliquot of the supernatant is assayed by LC-MS/MS for the amount of parent compound.
The half-life (t1/2 INVITRO) is determined by the slope of the semilogarithmic plot of the concentration-time profile. The intrinsic clearance (CL_[…]) is calculated by considering the amount of protein in the incubation: CL_[…][μl/min/mg protein]=(In 2/(half-life[min]*protein content[mg/ml]))*1′000. The half-life (t1/2 INVITRO) values of selected compounds in the metabolic stability assay described above are listed in the following table

In series [2] the test system is Neutrophil elastase activity in U937 cells. In words: Neutrophil elastase activity in U937 cytosolic lysate after incubation with test compound. In kind it is cell-based. The note with it: Homo sapiens, U-937; U937 cells incubated 48 hours with compound; NE activity in lysate; read-out: Reduction of NE-activity in U937 cells IC50. On the procedure: Determination of Neutrophil Elastase Activity in U937 Cytosolic Lysate Preparation after Incubation with Test Compound Materials: Optiplate 384F were purchased from PerkinElmer (Prod. No. #6007270). 24 well Nunclon cell culture plates (No. 142475) and 96 well plates (No. 267245) were from Nunc. Dimethylsulfoxid (DMSO) was from Sigma (Prod. No. D8418). Nonidet-P40 (NP40) was from USBiological (Prod. No. N3500) Substrate, specific for Neutrophil elastase, was from Bachem (MeOSuc-Ala-Ala-Pro-Val-AMC; Prod. No. I-1270). Human neutrophil elastase was from Calbiochem (Prod. No. 324681) Buffers: Tris-buffer (100 mM Tris; 1M NaCL; pH 7.5) Tris-buffer+HSA 0.1%; Human Serum Albumin from Calbiochem (Cat#. 126658) Serine-protease buffer (20 mM Tris; 100 mM NaCL; pH 7.5)+0.1% HSA Serine protease lysis buffer: 20 mM Tris-HCL; 100 mM NaCl pH 7.5; +0.2% Nonidet-P40; PBS: phosphate buffered saline, without Ca and Mg, from Gibco Cell Culture: U937 from ECACC (Cat. No. 85011440) cultured in suspension at 37° C. and 5% CO2. Cell density: 0.2-1 Mio. Cells/ml. Medium: RPMI1640 GlutaMAX (No. 61870) with 10% FCS from Gibco Cell Seeding and Treatment: Compounds in 100% DMSO were diluted in Medium (—FCS) with 10% DMSO and further diluted according to the experiment planned. 20 μl of the compound solution was transferred in the respective wells of the 24 well plate and diluted with 2 ml cell suspension/well containing 1′10^5 cells/ml (final concentration of DMSO=0.1%). Compound dilution factor=100 Compounds (up to 7 concentrations) were tested in triplicates with 3 wells for the DMSO 0.1% control, incubated for 48 hours without medium change at 37° C., 5% CO2 and 95% relative to humidity. Cell Harvesting and Cell Lysate:
Transfer the cell suspension in 2.2 ml Eppendorf cups. Separate cells from medium by centrifugation (400×g; 5 min; RT); discard the supernatant. Resuspend in 1 ml PBS; centrifugation (400×g; 5 min; RT); wash cells twice with PBS. Add 100 μl Serin lysis buffer (ice cold) to the cell pellet; resuspend the pellet and store on ice for 15 minutes. Remove debris by centrifugation at 15000×g for 10 min at 4° C. Transfer 80-100 μl lysate supernatant in 96 well plate and store immediately at −80° C.
Neutrophil Elastase Activity Assay:
Frozen lysates were thawn at 37° C. for 10 minutes and stored on ice. Protein content was determined with Bradford protein assay. Lysates were diluted to 0.2-0.5 mg/ml protein in serine protease buffer+HSA.
Standard: NE (100 μg/ml stocksolution in Tris-buffer; stored at −80° C.) was diluted in Tris-buffer+HSA to 750 ng/ml, and further serially diluted 1:2 for the standard curve.
Buffer, blank, standard and lysate samples were transferred into 384 well plate
The increase in fluorescence (Ex360 nm/Em 460 nm) is determined over 30 minutes with a Molecular Device Spectramax M5 Fluorescence Reader. Kinetic Reduction (Vmax units/sec); 4 vmax points. The amount of neutrophil elastase (ng/ml) is calculated using the standard curve and the Spectramax software. The result is interpolated to ng/mg lysate protein using excel formula functions. […] IC50 is calculated using Graphpad Prism; nonlinear fitting (log(inhibitor) vs. response—Variable slope). The IC50 value is interpolated as the concentration of test compound which leads to a neutrophil elastase activity reduction of 50% (relative to the DMSO-treated control).

Series [3] addresses recombinant human Cathepsin K (Homo sapiens (Human), UniProt P43235). Put plainly: Inhibition of human Cathepsin K. Format: biochemical. The following applies: substrate Z-Gly-Pro-Arg-AMC 12.5 μM, 60 min, room temperature. The source says:
Inhibition of Human Cathepsin K
Materials: Microtiterplates (Optiplate-384 F were purchased from PerkinElmer (Prod. No. 6007270). The substrate Z-Gly-Pro-Arg-AMC was from Biomol (Prod.-No. P-142). L-Cysteine (Prod. No. 168149) was from Sigma. Sodium actetate was from Merck (Prod.-No. 6268.0250), EDTA was from Fluka (Prod.-No. 03680). The inhibitor E-64 was purchased from Sigma (Prod.-No. E3132). The recombinant human Cathepsin K proenzyme was purchased from Biomol (Prod. No. SE-367). All other materials were of highest grade commercially available.
The following buffers were used: Activation buffer: 32.5 mM sodium acetate, adjusted to pH 3.5 with HCl; Assay buffer: 150 mM sodium acetate, 4 mM EDTA, 20 mM L-Cysteine, adjusted to pH 5.5 with HCl,
To activate the proenzyme, 5 μl procathepsin K were mixed with 1 ul activation buffer, and incubated at room temperature for 30 min.
5 μL test compound (final concentration 0.1 nM to 100 μM) in aqua bidest (containing 4% DMSO, final DMSO concentration 1%) were mixed with 10 uL of Cathepsin K in assay buffer (final concentration 2 ng/μL) and incubated for 10 min. Then 5 μL of substrate in assay buffer (final concentration 12.5 μM) were added. The plates were then incubated at room temperature for is 60 min. Then, the reaction was stopped by adding 10 μL of E64 in assay buffer (final concentration 1 μM). The fluorescence in the wells was determined using a Molecular Devices SpectraMax M5 Fluorescence Reader (Ex 360 nm, Em 460 nm).
Each assay microtiter plate contains wells with vehicle controls (1% DMSO in bidest) as reference for non-inhibited enzyme activity (100% Ctl; high values) and wells with inhibitor (E64 in bidest+1% DMSO, final concentration 1 μM) as controls for background fluorescence (0% Ctl; low values). The analysis of the data was performed by calculating the percentage of fluorescence in the presence of test compound in comparison to the fluorescence of the vehicle control after subtracting the background fluorescence: (RFU(sample)−RFU(background))*100/(RFU(control)−RFU(background))
Data from these calculations were used to generate IC50 values for inhibition of Cathepsin K, respectively.

The target in series [4] is recombinant human DPPI (Cathepsin C) (Homo sapiens (Human), UniProt P53634). In words: Inhibition of human DPPI (Cathepsin C). The note with it: substrate Gly-Arg-AMC 50 μM, 30 min, room temperature. Format: biochemical. The source says:
Inhibition of Human DPPI (Cathepsin C)
Materials: Microtiterplates (Optiplate-384 F) were purchased from PerkinElmer (Prod. No. 6007270). The substrate Gly-Arg-AMC was from Biotrend (Prod.-No. 808756 Custom peptide). Bovine serum albumin (BSA; Prod. No. A3059) and Dithiothreitol (DTT; Prod. No D0632) were from Sigma. TagZyme buffer was from Riedel-de-Haen (Prod.-No. 04269), NaCl was from Merck (Prod.-No. 1.06404.1000) and morpholinoethane sulfonic acid (MES), was from Serva (Prod.-No. 29834). The DPP1 inhibitor Gly-Phe-DMK was purchased from MP Biomedicals (Prod.-No. 03DK00625). The recombinant human DPPI was purchased from Prozymex. All other materials were of highest grade commercially available.
The following buffers were used: MES buffer: 25 mM MES, 50 mM NaCl, 5 mM DTT, adjusted to pH 6.0, containing 0.1% BSA; TAGZyme Buffer: 20 mM NaH2PO4, 150 mM NaCl adjusted to pH 6.0 with HCl
The recombinant human DPPI was diluted in TAGZyme buffer to 1 U/ml (38.1 μg/ml, respectively), and then activated by mixing in a 1:2 ratio with a Cysteamine aqueous solution (2 mM) and incubating for 5 min at room temperature.
Five uL test compound (final concentration 0.1 nM to 100 μM) in aqua bidest (containing 4% DMSO, final DMSO concentration 1%) were mixed with 10 μL of DPPI in MES buffer (final concentration 0.0125 ng/μL) and incubated for 10 min. Then, 5 μL of substrate in MES buffer (final concentration 50 μM) were added. The microtiter plates were then incubated at room temperature for 30 min. Then, the reaction was stopped by adding 10 μL of Gly-Phe-DMK in MES-buffer (final concentration 1 μM). The fluorescence in the wells was determined using a Molecular Devices SpectraMax M5 Fluorescence Reader (Ex 360 nm, Em 460 nm) or an Envision Fluorescence Reader (Ex 355 nm, Em 460 nm).
The analysis of the data was performed by calculating the percentage of fluorescence in the presence of test compound in comparison to the fluorescence of the vehicle control after subtracting the background fluorescence using the following formula: (RFU(sample)−RFU(background))*100/(RFU(control)−RFU(background))
Data from these calculations were used to generate IC50 values for inhibition of DPPI, respectively.

Sequence of recombinant human DPPI (Cathepsin C) (P53634 231-394): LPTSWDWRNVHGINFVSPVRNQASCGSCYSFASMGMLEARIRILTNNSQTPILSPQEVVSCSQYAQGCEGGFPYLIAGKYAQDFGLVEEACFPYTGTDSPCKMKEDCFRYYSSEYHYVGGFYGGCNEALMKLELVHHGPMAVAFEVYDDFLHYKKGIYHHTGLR
Sequence of recombinant human DPPI (Cathepsin C) (P53634 395-463): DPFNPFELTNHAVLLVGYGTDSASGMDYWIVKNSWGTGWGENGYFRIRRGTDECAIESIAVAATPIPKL
Sequence of recombinant human DPPI (Cathepsin C) (P53634 25-134): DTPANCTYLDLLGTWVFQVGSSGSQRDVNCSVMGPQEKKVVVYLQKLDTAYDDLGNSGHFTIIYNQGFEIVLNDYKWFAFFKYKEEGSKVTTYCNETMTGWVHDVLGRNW
Sequence of recombinant human Cathepsin K (P43235 115-329): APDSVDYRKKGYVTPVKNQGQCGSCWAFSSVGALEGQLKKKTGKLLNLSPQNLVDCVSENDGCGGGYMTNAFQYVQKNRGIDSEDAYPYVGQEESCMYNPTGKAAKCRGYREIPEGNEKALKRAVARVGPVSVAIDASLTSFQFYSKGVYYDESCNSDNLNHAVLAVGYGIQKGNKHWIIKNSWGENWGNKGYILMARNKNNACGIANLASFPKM

Consider `CS(=O)(=O)c1cc(-c2ccc(C[C@@H](C#N)NC(=O)[C@H]3NC4CCC3CC4)c(F)c2)ccc1C#N` [Example 1, (2S)—N-[(1S)-1-cyano-2-[4-(4-cyano-3-methylsulfonyl-phenyl)-2-fluoro-phenyl]ethyl]-3-azabicyclo[2.2.2]octane-2-carboxamide], for which the half-life at 1 μM in series [1] came to 2 h. Also, the concentration for half-maximal inhibition (IC50) in series [2] was 134 nM; in series [3], 2700 nM.
Take `CN1C(=O)Cc2ccc(-c3ccc(C[C@@H](C#N)NC(=O)[C@H]4NC5CCC4CC5)cc3)cc21` [Example 6]: in series [4], the IC50 worked out at 52.2 nM.
For the compound `N#Cc1ccc(-c2ccc(C[C@@H](C#N)NC(=O)[C@H]3NC4CCC3CC4)cc2)cc1` [Example 9], the half-life at 1 μM in series [1] was above 2.17 h. In addition, the values for the IC50 in series [4] and in series [3] were 73 nM and 14800 nM, respectively.
Turning to `N#C[C@H](Cc1ccc(-c2ccc(S(N)(=O)=O)cc2)cc1)NC(=O)[C@H]1NC2CCC1CC2` [Example 13], the results for the concentration for half-maximal inhibition (IC50) in series [4] and in series [3] were 102 nM and 10800 nM, respectively.
With `N#C[C@H](Cc1ccc(-c2ccc3c(c2)CC(=O)N3)cc1)NC(=O)[C@H]1NC2CCC1CC2` [Example 14], the IC50 in series [4] was 103 nM.
Regarding `CS(=O)(=O)c1ccc(-c2ccc(C[C@@H](C#N)NC(=O)[C@H]3NC4CCC3CC4)cc2)cc1` [Example 15], in series [4], the concentration for half-maximal inhibition (IC50) was 110 nM.
Take `N#C[C@H](Cc1ccc(-c2ccc(C(N)=O)cc2)cc1)NC(=O)[C@H]1NC2CCC1CC2` [Example 16]: in series [4], the IC50 came to 118 nM.
Take `CS(=O)(=O)Nc1ccc(-c2ccc(C[C@@H](C#N)NC(=O)[C@H]3NC4CCC3CC4)cc2)cc1` [Example 17]: the half-inhibitory concentration (IC50) worked out at 124 nM in series [4] and 6700 nM in series [3].
For `N#C[C@H](Cc1ccc(-c2cccc(C(N)=O)c2)cc1)NC(=O)[C@H]1NC2CCC1CC2` [Example 18], in that order: 131 nM and 9700 nM.
`N#C[C@H](Cc1ccc(-c2ccc3c(c2)CCNC3=O)cc1)NC(=O)[C@H]1NC2CCC1CC2` [Example 20]: the IC50 in series [4] came out at 137 nM.
As for `COCCN1C(=O)Cc2ccc(-c3ccc(C[C@@H](C#N)NC(=O)[C@H]4NC5CCC4CC5)cc3)cc21` [Example 21], the IC50 in series [4] was found to be 160 nM.
Regarding `CCS(=O)(=O)c1ccc(-c2ccc(C[C@@H](C#N)NC(=O)[C@H]3NC4CCC3CC4)cc2)cc1` [Example 22], in series [4], the IC50 was 164 nM.
In the case of `N#C[C@H](Cc1ccc(-c2cc(F)c(F)c(F)c2)cc1)NC(=O)[C@H]1NC2CCC1CC2` [Example 23], the IC50 in series [4] was 244 nM.
On the same count and under the same terms, next, `N#Cc1cc(-c2ccc(C[C@@H](C#N)NC(=O)[C@H]3NC4CCC3CC4)cc2)ccn1` [Example 24]: 248 nM.
Still for that read-out and setting: the same measure for `CN1Cc2ccc(-c3ccc(C[C@@H](C#N)NC(=O)[C@H]4NC5CCC4CC5)c(F)c3)cc2C1` [Example 25]: 98 nM; for `CS(=O)(=O)c1ccc(-c2ccc(C[C@@H](C#N)NC(=O)C3NC4CCC3CC4)c(F)c2)cc1C#N` (stereo partly drawn) [Example 26]: 27.8 nM.
On the same count and under the same terms, the same measure for `CN1Cc2cc(-c3ccc(C[C@@H](C#N)NC(=O)[C@H]4NC5CCC4CC5)c(F)c3)ccc2S1(=O)=O` [Example 27]: 73.3 nM.
